{
  "source": "patent US8877214B2",
  "about": "“Pharmaceutical composition for modified release” (Astellas Pharma Inc., priority 2010, dated 2014)",
  "key": {"[1]": {"experiment": "Pharmacokinetics (PK) test of immediate release formulation (capsule formulation) in human", "assay_type": "in vivo", "conditions": "healthy subjects, immediate release capsules, 0.1 to 340 mg", "description": "The immediate release formulations (capsule formulations) containing 0.1 mg, 1 mg, 5 mg, 20 mg, and 80 mg of the compound A were used in combinations as needed so that the dose of compound A became 0.1 mg, 1 mg, 3 mg, 10 mg, 30 mg, 100 mg, 160 mg, 240 mg, and 340 mg."}, "[2]": {"experiment": "Pharmacokinetics of compound A after conventional formulation (elimination half-life; absorption by deconvolution)", "conditions": "human, in vivo; read-out: elimination half-life (T1/2)", "description": "Taking into consideration the results of the clinical trial described above, the present inventors conducted intensive studies to design the formulation by paying attention to the control of a release rate of the drug from a formulation to the extent that the release is not affected by food intake or the like, rather than the addition of release control.\nOn the basis of blood concentration profiles (in a fasted state/after the intake of food) after administration of a conventional formulation (immediate release formulation), the absorption rate of the drug in a fed state was calculated by a deconvolution method to predict continuous absorption for about 4 hours."}},
  "data": [
    {"smiles": "Nc1nc(CC(=O)Nc2ccc(CCNC[C@H](O)c3ccccc3)cc2)cs1", "note": "[Compound A, (R)-2-(2-aminothiazol-4-yl)-4′-[2-[(2-hydroxy-2-phenylethyl)amino]ethyl]acetic acid anilide]", "values": [
      {"measurement": "relation between Cmax and the increase in heart rate from the base line", "setting": "[1]", "value": "positive correlation"},
      {"measurement": "half-life", "setting": "[2]", "value": "18 to 24", "unit": "h"}
    ]}
  ]
}
